Assay results published in patent publication US7384629B2, “Biological control of nematodes with Hirsutella minnesotensis” (Regents of the University of Minnesota, priority 2000, dated 2008).

Test system: Hirsutella rhossiliensis
Assay: Effect of carbon source on growth, sporulation and spore germination
Settings: for Growth mm-in-diam, on agar: carbon source 4 g/liter carbon; for Growth mm-in-diam, on agar / Sporulation 10^3/cm^2, on agar / growth in liquid culture (visual rating): 5 weeks; for Sporulation 10^3/cm^2, on agar / growth in liquid culture (visual rating) / Spore germination %, on agar: carbon source; for Spore germination %, on agar: after incubation for 24 hr

Row | Compound | Growth mm-in-diam, on agar (isolate ATCC46487) [mm-in-diam] | Growth mm-in-diam, on agar (isolate JA16-1) [mm-in-diam] | Growth mm-in-diam, on agar (isolate OWVT-1) [mm-in-diam] | Sporulation 10^3/cm^2, on agar (isolate ATCC46487) | growth in liquid culture (visual rating) (isolate ATCC46487) | Spore germination %, on agar (isolate ATCC46487) [%] | Sporulation 10^3/cm^2, on agar (isolate JA16-1) | Spore germination %, on agar (isolate JA16-1) [%] | Sporulation 10^3/cm^2, on agar (isolate OWVT-1) | growth in liquid culture (visual rating) (isolate OWVT-1) | Spore germination %, on agar (isolate OWVT-1) [%] | growth in liquid culture (visual rating) (isolate JA16-1)
1 | O=C(CO)[C@@H](O)[C@H](O)[C@H](O)CO [D(−)fructose] | 16.2 | 0.0 | 8.5 | 50.2 10^3/cm^2 | I | 45.6 | 0.0 10^3/cm^2 | 34.4 | 36.8 10^3/cm^2 | I | 50.0 | 
2 | OC[C@H]1O[C@@H](O[C@H]2[C@H](O)[C@@H](O)[C@H](O)O[C@@H]2CO)[C@H](O)[C@@H](O)[C@@H]1O [D-(+)-cellubiose] | 33.0 | 10.0 |  | 13.8 10^3/cm^2 | I | 58.9 | 88.8 10^3/cm^2 | 52.2 | 23.9 10^3/cm^2 | I | 52.2 | I
3 | OC[C@H]1O[C@@](CO)(O[C@H]2O[C@H](CO)[C@@H](O)[C@H](O)[C@H]2O)[C@@H](O)[C@@H]1O [Sucrose] | 39.5 | 15.0 | 21.8 | 38.9 10^3/cm^2 | III (III = hyphae growth or colonies form a pellet, less than 2.5 ml) | 55.6 | 6.9 10^3/cm^2 | 73.4 | 47.7 10^3/cm^2 |  | 52.2 | I
4 | O=C[C@H](O)[C@H](O)[C@H](O)CO [D(−) ribose] | 15.5 | 0.0 | 8.0 | 61.3 10^3/cm^2 |  | 48.9 | 0.0 10^3/cm^2 | 15.5 | 1.4 10^3/cm^2 |  | 45.6 | 
5 | O.OC[C@H]1O[C@@H](O[C@H]2[C@H](O)[C@@H](O)[C@@H](O)O[C@@H]2CO)[C@H](O)[C@@H](O)[C@H]1O [a-lactose monohydrate] | 35.8 | 15.8 | 9.8 | 2.4 10^3/cm^2 | I | 56.7 | 37.3 10^3/cm^2 | 68.9 | 17.4 10^3/cm^2 | I | 42.2 | I
6 | OC[C@H]1O[C@H](OCC2O[C@@H](O)[C@H](O)[C@@H](O)[C@@H]2O)[C@H](O)[C@@H](O)[C@H]1O (some centres unmarked) [Melibiose] | 35.0 | 11.8 | 18.2 | 41.9 10^3/cm^2 | III (III = hyphae growth or colonies form a pellet, less than 2.5 ml) | 40.0 | 13.1 10^3/cm^2 | 61.7 | 33.7 10^3/cm^2 |  | 48.9 | I
